Experimental findings from patent US5286895A, “Cholesterol lowering compounds” (Merck & Co., Inc., priority 1992, dated 1994) are described below.

Assay [1] deals with T1, squalene synthetase (Rattus norvegicus, UniProt Q02769).
T1 construct: The resulting microsomal pellet was resuspended in a volume of the above homogenizing buffer; from tissue; host or cells: rat liver microsomes (male Charles River CD rats fed 0.1% lovastatin)
T1 sequence (Q02769 1-416): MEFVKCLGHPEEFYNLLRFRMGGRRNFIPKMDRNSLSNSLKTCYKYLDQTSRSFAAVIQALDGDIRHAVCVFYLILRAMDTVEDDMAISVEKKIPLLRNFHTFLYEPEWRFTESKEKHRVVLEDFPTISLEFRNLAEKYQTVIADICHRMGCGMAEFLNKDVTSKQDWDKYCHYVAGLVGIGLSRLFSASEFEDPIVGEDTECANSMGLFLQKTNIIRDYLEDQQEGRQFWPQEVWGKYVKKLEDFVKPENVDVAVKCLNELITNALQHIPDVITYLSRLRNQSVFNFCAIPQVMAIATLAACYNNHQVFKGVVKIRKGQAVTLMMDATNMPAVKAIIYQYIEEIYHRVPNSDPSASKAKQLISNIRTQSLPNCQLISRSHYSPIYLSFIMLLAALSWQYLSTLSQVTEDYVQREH
The experiment in a line: Squalene synthetase assay (rat liver microsomes, [4-14C]farnesyl-pyrophosphate). The assay is classed as biochemical. The following applies: 30° C., 20 minutes, read-out: IC50, squalene synthetase inhibition. On the technique in general: Microsomes from liver hold many membrane-bound enzymes, among them those of drug oxidation.
Experimental: Male, Charles River CD rats (120 to 150 g) were fed a diet containing 0.1% lovastatin for 4 days. The livers from these rats were homogenized in 5 volumes (ml/g) of ice cold 50 mM HEPES (4-(2-hydroxyethyl)-1-piperazine-ethanesulfonic acid), 5 mM EDTA(ethylenediaminetetraacetic acid) pH 7.5 with a Potter-Elvehjem type tissue grinder. The homogenate was centrifuged twice at 20,000× g for 15 minutes at 4° C., discarding the pellet each time. The supernatant was then centrifuged at 100,000× g for 1 hour at 4° C. The resulting microsomal pellet was resuspended in a volume of the above homogenizing buffer equal to one-fifth the volume of the original homogenate. This microsomal preparation has a protein concentration of about 7 mg/ml. The microsomal suspensions were stored in aliquots at -70° C. Squalene synthetase activity in these aliquots is stable for at least several months.
Reaction were performed in 16×125 mm screw cap test tubes. A batch assay mix was prepared from the following solution:
This assay mix was degassed under a vacuum and flushed with N2. […] Ten ml of scintillation fluid was added to the heptane solution and radioactivity was determined by liquid scintillation counting.
Percent inhibition is calculated by the formula: [formula]
IC50 values were determined by plotting the log of the concentration of the test compound versus the percentage inhibition.

The test system of assay [2] is cholesterol synthesis. The experiment in a line: Measurement of inhibition of cholesterol synthesis in mice ([3H]mevalonolactone incorporation in liver). The conditions noted are these: female Swiss-Webster mice, subcutaneous. The assay is classed as in vivo. As to the method: Female Swiss-Webster mice, approximately 25 grams, were dosed subcutaneously with the test compound or just with saline for controls. The tri-sodium salt of Compound A was dissolved in 0.9% NaCl and administered in a volume of less than 0.1 ml. Thirty minutes after receiving a dose of the test compound or saline for the controls, the mice were subcutaneously administered a dose of 0.5 uCi of R,S-[5-^3 H]mevalonolactone (35 Ci/mmol). The tracer mevalonolactone was dissolved in 0.9% NaCl and administered in a volume of 0.05 ml. Thirty minutes after receiving the dose of mevalonolactone, the animals were euthanized, and the livers were removed and saponified in a solution of 4 ml of 40% KOH and 2 ml of 95% ethanol overnight at 65° C. The saponified livers were extracted with two 5 ml volumes of petroleum ether. Incorporation of ^3 H into this petroleum ether fraction was used to measure cholesterol synthesis. Inhibition of cholesterol synthesis was determined by comparing the incorporation of ^3 H in the petroleum ether fraction in control animals to the incorporation in the petroleum ether fraction in the compound test animals.

As usually defined, the IC50 is the concentration that inhibits the measured activity by half. As a reminder, the ED50 is the dose at which the effect has come halfway, by size or by number of responders. As to `C/C(=C\C(C)Cc1ccccc1)CCCCCC(C(=O)O)C(O)(CC(=O)O)C(=O)O` (stereo not drawn) [Compound A], the IC50 in assay [1] is ~300 nM. Also, in assay [2] (Mus musculus, sc, tri-sodium salt in 0.9% NaCl, dosed 30 min before [3H]mevalonolactone), the ED50 is ~15 mg/kg. Also, the “inhibition of cholesterol synthesis in mice (in words)” value in assay [2] is listed as “potent inhibitor of cholesterol synthesis in mice”.
